Reference: ChEMBL document CHEMBL5614460, “Discovery of novel substituted pyridine carboxamide derivatives as potent allosteric SHP2 inhibitors” (Eur J Med Chem, 2024)
pIC50: −log10 of the molar value. Activity calls are given as the source filed them. No cut-off for these calls is given here.

Assays:
[1] = target: T1, Tyrosine-protein phosphatase non-receptor type 11 (Homo sapiens) (UniProt Q06124); assay: Allosteric inhibition of N-terminal His-tagged human recombinant SHP2 extracted from Escherichia coli using DiFMUP as substrate at 10 uM preincubated with compound for 60 mins followed by substrate addition and measured after 30 mins by fluorescence based microplate reader analysis relative to control; conditions: time 90.0 min
T1 sequence (whole entry): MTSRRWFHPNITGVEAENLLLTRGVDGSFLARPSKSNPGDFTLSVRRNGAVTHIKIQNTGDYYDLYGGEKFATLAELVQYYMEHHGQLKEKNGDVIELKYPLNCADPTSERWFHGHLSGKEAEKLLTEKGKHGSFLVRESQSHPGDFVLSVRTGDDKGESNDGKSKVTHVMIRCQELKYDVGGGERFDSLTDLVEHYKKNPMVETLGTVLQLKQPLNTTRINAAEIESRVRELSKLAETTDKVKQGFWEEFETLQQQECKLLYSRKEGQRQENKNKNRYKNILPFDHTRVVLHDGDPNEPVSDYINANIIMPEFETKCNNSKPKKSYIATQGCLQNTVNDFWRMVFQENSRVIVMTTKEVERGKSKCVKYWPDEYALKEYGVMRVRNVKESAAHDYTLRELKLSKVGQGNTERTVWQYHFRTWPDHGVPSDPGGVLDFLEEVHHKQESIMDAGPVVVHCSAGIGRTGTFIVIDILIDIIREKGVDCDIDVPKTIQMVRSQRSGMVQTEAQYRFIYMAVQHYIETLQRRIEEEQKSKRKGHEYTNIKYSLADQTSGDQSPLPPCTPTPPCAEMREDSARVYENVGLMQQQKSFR

MV4-11 [2] = assay: Antiproliferative activity against human MV4-11 cells assessed as inhibition of cell proliferation incubated for 72 hrs by CCK-8 assay; type: functional, cell-based
MV4-11 [3] = assay: Antitumor activity against human MV4-11 cells xenografted in BALB/C nude mouse model assessed as tumor growth inhibition at 30 mg/kg, IG administered once daily for 18 days relative to control; type: functional; conditions: MV4-11, po, 432 h, time 18 day, read-out: TGI
[4] = Toxicity in BALB/C nude mouse xenografted with human […] cells assessed as animal death at 30 mg/kg, IG administered once daily for 18 days; type: organism-based; conditions: in vivo, po, 432 h, time 18 day
[5] = Toxicity in BALB/C nude mouse xenografted with human […] cells assessed as change in body weight at 30 mg/kg, IG administered once daily for 18 days; type: organism-based; conditions: in vivo, po, 432 h, time 18 day
[6] = target: T2, Tyrosine-protein phosphatase non-receptor type 11 (Homo sapiens, UniProt Q06124); assay: Inhibition of SHP2 (unknown origin)
T2 sequence (Q06124 whole entry): T1 sequence (whole entry)

[7] = target: T2, Tyrosine-protein phosphatase non-receptor type 11; assay: Allosteric inhibition of N-terminal His-tagged human recombinant SHP2 extracted from Escherichia coli using DiFMUP as substrate preincubated with compound for 60 mins followed by substrate addition and measured after 30 mins by fluorescence based microplate reader analysis
MV4-11 [8] = assay: Antitumor activity against human MV4-11 cells xenografted in BALB/C nude mouse model assessed as suppression of tumor growth administered intragastrically as once daily dose for 18 days; type: functional, cell-based; conditions: dose 10-30 mg/kg, route ig, time 18.0 day
MV4-11 [9] = assay: Potency index, ratio of TNO155 IC50 to test compound IC50 for antiproliferative activity against human MV4-11 cells assessed as inhibition of cell proliferation incubated for 72 hrs by CCK-8 assay; type: functional
[10] = target: T1, Tyrosine-protein phosphatase non-receptor type 11 (Homo sapiens); assay: Inhibition of SHP2 PTP domain (unknown origin) using DiFMUP as substrate at 10 uM preincubated with compound for 60 mins followed by substrate addition and measured after 30 mins by fluorescence based microplate reader analysis relative to control; conditions: time 90.0 min
[11] = target: Tyrosine-protein phosphatase non-receptor type 6 (Homo sapiens) (UniProt P29350); assay: Inhibition of SHP1 (unknown origin) using DiFMUP as substrate at 10 uM preincubated with compound for 60 mins followed by substrate addition and measured after 30 mins by fluorescence based microplate reader analysis relative to control; conditions: time 90.0 min
Chain of Tyrosine-protein phosphatase non-receptor type 6 (Homo sapiens) (P29350 whole entry): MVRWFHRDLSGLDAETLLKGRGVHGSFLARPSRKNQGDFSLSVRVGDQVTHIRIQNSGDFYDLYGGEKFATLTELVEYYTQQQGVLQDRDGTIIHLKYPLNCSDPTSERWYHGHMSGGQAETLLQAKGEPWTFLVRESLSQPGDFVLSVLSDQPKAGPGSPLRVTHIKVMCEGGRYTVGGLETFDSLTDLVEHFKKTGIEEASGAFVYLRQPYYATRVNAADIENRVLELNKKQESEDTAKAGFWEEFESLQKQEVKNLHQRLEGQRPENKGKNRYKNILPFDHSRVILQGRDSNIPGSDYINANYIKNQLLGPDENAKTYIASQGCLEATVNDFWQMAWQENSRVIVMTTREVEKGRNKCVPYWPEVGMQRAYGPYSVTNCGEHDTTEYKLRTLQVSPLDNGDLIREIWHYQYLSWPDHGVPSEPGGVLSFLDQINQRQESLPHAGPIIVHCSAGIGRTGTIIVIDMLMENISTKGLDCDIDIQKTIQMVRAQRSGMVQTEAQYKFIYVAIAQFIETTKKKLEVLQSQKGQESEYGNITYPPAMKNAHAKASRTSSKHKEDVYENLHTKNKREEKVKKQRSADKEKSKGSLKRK

[12] = target: T3, Tyrosine-protein phosphatase non-receptor type 1 (Homo sapiens) (UniProt P18031); assay: Inhibition of PTP1B (unknown origin) using DiFMUP as substrate at 10 uM preincubated with compound for 60 mins followed by substrate addition and measured after 30 mins by fluorescence based microplate reader analysis relative to control; conditions: time 90.0 min
T3 sequence (whole entry): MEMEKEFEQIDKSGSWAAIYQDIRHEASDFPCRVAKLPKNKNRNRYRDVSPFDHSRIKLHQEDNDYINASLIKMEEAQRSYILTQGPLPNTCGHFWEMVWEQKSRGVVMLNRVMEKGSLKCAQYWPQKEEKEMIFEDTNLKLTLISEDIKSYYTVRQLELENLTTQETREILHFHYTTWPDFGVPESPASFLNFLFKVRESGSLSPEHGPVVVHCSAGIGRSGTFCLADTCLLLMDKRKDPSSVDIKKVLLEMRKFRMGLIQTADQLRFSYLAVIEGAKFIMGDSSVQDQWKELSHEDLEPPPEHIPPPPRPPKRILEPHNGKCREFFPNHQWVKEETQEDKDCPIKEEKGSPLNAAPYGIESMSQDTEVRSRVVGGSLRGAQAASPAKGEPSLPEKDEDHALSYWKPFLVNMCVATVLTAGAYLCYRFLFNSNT

[13] = Cmax in male Sprague-Dawley rat at 2 mg/kg, iv measured for 24 hrs by LC/MS analysis; type: ADME, organism-based; conditions: in vivo
[14] = Cmax in male Sprague-Dawley rat at 10 mg/kg, po measured for 24 hrs by LC/MS analysis; type: ADME, organism-based; conditions: in vivo
[15] = Tmax in male Sprague-Dawley rat at 2 mg/kg, iv measured for 24 hrs by LC/MS analysis; type: ADME, organism-based; conditions: in vivo
[16] = Tmax in male Sprague-Dawley rat at 10 mg/kg, po measured for 24 hrs by LC/MS analysis; type: ADME, organism-based; conditions: in vivo
[17] = Half life in male Sprague-Dawley rat at 2 mg/kg, iv measured for 24 hrs by LC/MS analysis; type: ADME, organism-based; conditions: in vivo
[18] = Half life in male Sprague-Dawley rat at 10 mg/kg, po measured for 24 hrs by LC/MS analysis; type: ADME, organism-based; conditions: in vivo
[19] = AUC (0 to infinity) in male Sprague-Dawley rat at 2 mg/kg, iv measured for 24 hrs by LC/MS analysis; type: ADME, organism-based; conditions: in vivo
[20] = AUC (0 to infinity) in male Sprague-Dawley rat at 10 mg/kg, po measured for 24 hrs by LC/MS analysis; type: ADME, organism-based; conditions: in vivo
[21] = Apparent volume of distribution during terminal phase in male Sprague-Dawley rat at 2 mg/kg, iv measured for 24 hrs by LC/MS analysis; type: ADME, organism-based; conditions: in vivo
[22] = Apparent clearance during terminal phase in male Sprague-Dawley rat at 2 mg/kg, iv measured for 24 hrs by LC/MS analysis; type: ADME, organism-based; conditions: in vivo
[23] = Oral bioavailability in male Sprague-Dawley rat at 10 mg/kg measured for 24 hrs by LC/MS analysis; type: ADME, organism-based; conditions: in vivo
MV4-11 [24] = assay: Antitumor activity against human MV4-11 cells xenografted in BALB/C nude mouse model assessed as tumor growth inhibition at 10 mg/kg, IG administered once daily for 18 days relative to control; type: functional; conditions: MV4-11, po, 432 h, time 18 day, read-out: TGI
[25] = Toxicity in BALB/C nude mouse xenografted with human […] cells assessed as animal death at 10 to 30 mg/kg, IG administered once daily for 18 days; type: organism-based; conditions: in vivo, po, 432 h, dose 10-30 mg/kg, time 18 day
[26] = Toxicity in BALB/C nude mouse xenografted with human […] cells assessed as change in body weight at 10 to 30 mg/kg, IG administered once daily for 18 days; type: organism-based; conditions: in vivo, po, 432 h, dose 10-30 mg/kg, time 18 day
MV4-11 [27] = assay: Antitumor activity against human MV4-11 cells xenografted in BALB/C nude mouse model assessed as appearance of pyknotic nuclei in tumor at 10 to 30 mg/kg, IG administered once a day for 18 days by H and E staining based analysis; type: functional, organism-based; conditions: dose 10-30 mg/kg, time 18.0 day
MV4-11 [28] = assay: Antitumor activity against human MV4-11 cells xenografted in BALB/C nude mouse model assessed as appearance of shrunken nuclei in tumor at 10 to 30 mg/kg, IG administered once a day for 18 days by H and E staining based analysis; type: functional, organism-based; conditions: dose 10-30 mg/kg, time 18.0 day
[29] = target: T1, Tyrosine-protein phosphatase non-receptor type 11 (Homo sapiens); assay: Inhibition of SHP2 in human MV4-11 cells assessed as downregulation of phosphorylated Akt level incubated for 12 hrs by Western blot analysis; type: cell-based; conditions: dose 0-5 µM
[30] = target: T1, Tyrosine-protein phosphatase non-receptor type 11 (Homo sapiens); assay: Inhibition of SHP2 in human MV4-11 cells assessed as downregulation of phosphorylated ERK level incubated for 12 hrs by Western blot analysis; type: cell-based; conditions: dose 0-5 µM
MV4-11 [31] = assay: Antitumor activity against human MV4-11 cells xenografted in BALB/C nude mouse model assessed as reduction in Ki67 expression administered intragastrically as once daily dose for 18 days by immunohistochemistry staining based analysis; type: functional, cell-based; conditions: dose 10-30 mg/kg, route ig, time 18.0 day
MV4-11 [32] = assay: Antitumor immunity against human MV4-11 cells xenografted in BALB/C nude mouse model assessed as suppression of CD206+/Ly6C+ M2-like tumor associated macrophages in lymphocytes at 10 to 30 mg/kg, IG administered once daily for 18 days by flow cytometric analysis; type: functional, organism-based; conditions: dose 10-30 mg/kg, time 18.0 day
MV4-11 [33] = assay: Antitumor immunity against human MV4-11 cells xenografted in BALB/C nude mouse model assessed as reduction of IL-10 expression level in tumor at 30 mg/kg, IG administered once daily for 18 days by ELISA; type: functional, organism-based; conditions: time 18.0 day
MV4-11 [34] = assay: Antitumor immunity against human MV4-11 cells xenografted in BALB/C nude mouse model assessed as reduction in F4/80+/CD206+ M2-like tumor associated macrophages at 10 to 30 mg/kg, IG administered once daily for 18 days by immunofluorescence staining […]; type: functional, organism-based; conditions: dose 10-30 mg/kg, time 18.0 day

NCC(=O)N1CCN(c2cnc(Sc3ccnc(N)c3Cl)c(N)n2)CC1
inhibition [1]: 58.8%

Nc1nc(N2CCN(C(=O)[C@H]3CCCN3)CC2)cnc1Sc1ccnc(N)c1Cl
inhibition [1]: 50.2%

C[C@@H]1OCC2(CCN(c3cnc(Sc4ccnc(N)c4Cl)c(N)n3)CC2)[C@@H]1N [BATOPROTAFIB]
pIC50 (MV4-11 [2]; mv4-11): 7.41
inhibition in vivo at 30 mg/kg (MV4-11 [3]): 70.8%
Activity [4]: Non-Toxic
Activity [5]: Non-Toxic

Cc1nc(N2CCC3(CC2)CO[C@@H](C)[C@H]3N)c(CO)nc1Sc1ccnc(N)c1Cl [VOCIPROTAFIB]
pIC50 [6]: 8.82

Nc1nc(N2CCN(C(=O)C3(N)CCCC3)CC2)cnc1Sc1ccnc(N)c1Cl
pIC50 [7]: 6.28
inhibition [1]: 95.2%

Nc1nc(N2CCN(C(=O)[C@@H]3CCCN3)CC2)cnc1Sc1ccnc(N)c1Cl
inhibition [1]: 48.8%

N[C@@H]1c2ccccc2CC12CCN(c1cnc(Sc3cccc(NC(=O)c4cnccc4O)c3Cl)cn1)CC2
Activity (MV4-11 [8]): Dose-Dependent Effect
pIC50 [7]: 9.89
pIC50 (MV4-11 [2]; Homo sapiens, MV4-11, 72 h): 8.46
Ratio IC50 (MV4-11 [9]): ~11
inhibition [10]: 13.2%
inhibition [11]: 29.3%
inhibition [12]: 8.7%
Cmax [13]: 681 ng/mL
Cmax [14]: 70.1 ng/mL
Tmax [15]: 1.8 min
Tmax [16]: 3.24 h
half-life [17]: 4.26 h
half-life [18]: 4.66 h
AUC(0-inf) [19]: 1260 ng·h/mL
AUC(0-inf) [20]: 762 ng·h/mL
Vz/F [21]: 11.04 L/kg
CLz/F [22]: 29 mL/min/kg
bioavailability [23]: 11.9%
inhibition in vivo at 30 mg/kg (MV4-11 [3]): 69.5%
inhibition in vivo at 10 mg/kg (MV4-11 [24]): 45.9%
Activity [25]: Non-Toxic
Activity [26]: Non-Toxic
Activity (MV4-11 [27]): Active
Activity (MV4-11 [28]): Active
inhibition [29]: Dose-Dependent Effect
inhibition [30]: Dose-Dependent Effect
Activity (MV4-11 [31]): Dose-Dependent Effect
Activity (MV4-11 [32]): Active
Activity (MV4-11 [33]): Active
Activity (MV4-11 [34]): Active

Nc1nc(N2CCN(C(=O)C3(N)CCCCC3)CC2)cnc1Sc1ccnc(N)c1Cl
inhibition [1]: 14.3%

C[C@@H]1OCC2(CCN(c3cnc(Sc4cccc(NC(=O)c5cnccc5O)c4Cl)cn3)CC2)[C@@H]1N
pIC50 [7]: 9.77
pIC50 (MV4-11 [2]; Homo sapiens, MV4-11, 72 h): 7.78

Nc1nc(N2CCN(C(=O)C3(N)CCC3)CC2)cnc1Sc1ccnc(N)c1Cl
inhibition [1]: 44.2%

C[C@@H]1OCC2(CCN(c3cnc(Sc4cccc(NC(=O)c5cccnc5O)c4Cl)cn3)CC2)[C@@H]1N
pIC50 [7]: 9.89
pIC50 (MV4-11 [2]; Homo sapiens, MV4-11, 72 h): 7.34

C[C@H](N)C(=O)N1CCN(c2cnc(Sc3ccnc(N)c3Cl)c(N)n2)CC1
inhibition [1]: 13.2%

C[C@@H](N)C(=O)N1CCN(c2cnc(Sc3ccnc(N)c3Cl)c(N)n2)CC1
inhibition [1]: 43.8%
